Like-named read-outs stand apart in the source and are kept apart here.
Columns and labels:
[1] = Firocoxib binding to plasma proteins, ultrafiltration; format: in vitro ADME; conditions: pooled plasma, pH 7.4, firocoxib 500 ng/mL, corrected for non-specific binding, thawed frozen plasma, read-out: corrected percentage bound to plasma proteins (converted)
Procedure: The percentage of firocoxib bound to koala plasma proteins was determined using the ultrafiltration method using a modified protocol. As firocoxib plasma protein binding (PPB) has been reported in horses, archived horse plasma (obtained under The University of Sydney approved animal ethics protocol: 2015/736) was tested simultaneously alongside koala plasma to compare the percentage of firocoxib bound to equine plasma proteins. The total plasma protein concentration in the koala samples was determined using Vetscan® VS2 chemistry analyser (Comprehensive Diagnostic Profile), (Zoetis Australia Pty Ltd., Rhodes, NSW). Firocoxib dissolved in dimethyl sulfoxide (to reduce non-specific binding) at a concentration of 500 ng/mL, was added to 1 mL of thawed pooled blank koala or horse plasma, the pH was adjusted to 7.4, and then incubated in a water bath at 37 °C for 30 min. […] Both fractions were analysed by HPLC as described above. All samples were analysed as duplicates. The percentage of substrate binding to plasma proteins was calculated using the equation: […]
(§1) The same concentrations of firocoxib were added to phosphate buffered saline and underwent ultrafiltration to determine non-specific binding to the filtration membrane. Thereafter the corrected percentage of substrate binding to plasma proteins was calculated as: […]

[2] = Non-specific binding to the filtration membrane (phosphate buffered saline); format: in vitro ADME; conditions: at a concentration of 250 ng/mL
Procedure: as §1

[3] = system: koalas; assay: Clinical observations, haematology and biochemistry after repeat dosing; format: in vivo, koala (Phascolarctos cinereus); conditions: for Phos: reference interval 0.87-2.47
Procedure: Samples were centrifuged at 1500 x g for 10 minutes, within 1 h of collection; the plasma was immediately stored at –80 °C and protected from light until drug quantification. […] Clinical observations for the presence of adverse effects in the animals treated included measurement of vital signs, appetite, body weight, faecal consistency and overall behaviour and mobility.

[4] = parameters: method as in ref [5] of S9 Table; conditions: Camels (5); IV 0.1 mg/kg; ref [5] of S9 Table; cited from earlier work
[5] = parameters: method as in ref [6] of S9 Table; conditions: Pigs (7); PO 4.0 mg/kg; ref [6] of S9 Table; cited from earlier work
[6] = parameters: method as in ref [8] of S9 Table; conditions: Goats (10), ref [8] of S9 Table, cited from earlier work
[7] = system: equine plasma proteins; parameters: method as in PMID 17472652; conditions: radiolabelled firocoxib; cited from earlier work
[8] = system: elephant plasma proteins; parameters: method as in PMID 37428699, PMID 38453490; conditions: African and Asian elephants; rapid equilibrium dialysis; cited from earlier work
[9] = cited from earlier work
[10] = system: urate crystal-induced synovitis in dogs; parameters: method as in ref 38 = [38]; 38 Dauteloup C , Pichou C , Beugnet F . Assessment of the efficacy of firocoxib and robenacoxib in an induced synovitis model of acute arthritis in dogs . International Journal of Applied Research in; conditions: cited from earlier work
[11] = system: ovariohysterectomised cats; parameters: method as in PMID 27515266; conditions: 3 mg/kg/day, cited from earlier work
[12] = system: cyclooxygenase-2; conditions: based on in vitro studies in other species; cited from earlier work

SMILES: CC1(C)OC(=O)C(OCC2CC2)=C1c1ccc(S(C)(=O)=O)cc1 [firocoxib]
- fraction unbound at 30 min, 500 ng/mL ([1]; horse plasma): 0.147
- fraction unbound at 30 min, 500 ng/mL ([1]; koala plasma): 0.153
- non-specific binding of firocoxib [2]: 4.06%
- appetite, behaviour and mobility ([3]; in vivo): no change from normal appetite, behaviour and mobility
- body weight ([3]; in vivo): maintained stable body weight
- Phos ([3]; koala K2, 72 h, after repeated dosing 5 mg/kg every 12 h): 1.48 mmol/L
- Phos ([3]; koala K6, 72 h, after repeated dosing 5 mg/kg every 12 h): 1.37 mmol/L
- Na ([3]; koala K6, 72 h, after repeated dosing 5 mg/kg every 12 h, reference interval 132-143): 139 mmol/L
- t1/2 [4]: 5.75 h
- Cmax [5]: 60 ng/mL
- Tmax [5]: 7.41 h
- t1/2 [5]: 24.075 h
- t1/2 ([6]; IV 0.5 mg/kg): 26.41 h
- Cmax ([6]; PO 0.5 mg/kg): 139 ng/mL
- Tmax ([6]; PO 0.5 mg/kg): 0.77 h
- t1/2 ([6]; PO 0.5 mg/kg): 21.51 h
- bound in horse plasma [7]: 97%
- binding to elephant plasma proteins [8]: 45%
- ionizability ([9]; at physiological pH): low ionizability
- -log10 dissociation constant (pka) [9]: 19.69
- solubility in dimethyl sulfoxide [9]: highly soluble
- solubility in water [9]: insoluble
- peak vertical force and weight-bearing capacity [10]: efficacy in improving the peak vertical force and weight-bearing capacity
- postoperative analgesia ([11]; 1 h prior to induction of anaesthesia and at 24 and 48 h post-surgery): some analgesia
- azotaemia ([11]; 72 h after surgery): two out of eight cats developed a reversible azotaemia
- target plasma concentration to inhibit 80% of cyclooxygenase-2 activity (IC80) [12]: approximately 100 ng/mL

From paper PMC12483202, “Pharmacokinetic profile of oral firocoxib in the koala (Phascolarctos cinereus)” (PLOS One, 2025)
